# Laboratory results published in US20080096852A1, “USE OF OCULOSURFACE SELECTIVE GLUCOCORTICOID IN THE TREATMENT OF DRY EYE” (Alcon,Inc., priority 2002, published 2008).
# What was measured:
# [1] = test system: dry eye in patients with autoimmune connective tissue disease; details: human patients; suspensions 0.005%, 0.05% and 0.1%; one drop each eye four times per day for six weeks
# Source text: Three different suspensions, containing rimexolone at concentrations of 0.005%, 0.05% and 0.1%, respectively, were utilized in the study. A fourth formulation, which was identical to the three rimexolone suspensions except for the elimination of rimexolone, was utilized as a control (i.e., placebo).
# The patients in each group administered one drop of the respective formulations to each eye four times per day for six weeks. Following the end of the six week drug administration period, the patients' symptoms were evaluated.
# [2] = test system: desiccation-induced corneal injury in rabbits; test: Desiccation-induced corneal injury (methylene blue uptake) after lacrimal gland inflammation; assay type: in vivo, New Zealand white rabbits; details: rabbit
# Procedure: The ability of low doses of rimexolone to alleviate dry eye conditions was evaluated. […] The experimental procedures are described below. In a separate group of animals, susceptibility to desiccation-induced corneal injury was assessed following the induction of lacrimal gland inflammation. Desiccation was initiated by placing the rabbits in a low humidity environment continuously for up to three days. Corneal injury was assessed by determining the uptake of the vital dye, methylene blue. Under general anesthesia, the ocular surface was bathed in a 1% solution of methylene blue for five minutes and then washed. The animals were euthanized, eyes were excised and an 8 mm-diameter section of cornea was isolated and extracted overnight. The concentration of extracted dye was determined spectrophotometrically ([…]). Protection of the cornea is indicated by a lesser uptake of dye in drug treated animals relative to that in vehicle treated rabbits. For both TBUT and corneal injury determinations, dosing (QID) was initiated 24-hours prior to inducing inflammation and was continued for the duration of the study. A second dose-response study was conducted using the procedures described in Example 2 above.
# [3] = test system: dry eye induced in New Zealand white rabbits; test: Tear breakup time (TBUT) in rabbit dry eye model (lacrimal gland inflammation); assay type: in vivo
# Procedure: The ability of low doses of rimexolone to alleviate dry eye conditions was evaluated. […] The experimental procedures are described below. Dry eye was induced in New Zealand white rabbits (approximately 2 kg) by eliciting bilateral inflammation of the lacrimal glands. Tear function was assessed by measuring tear breakup time (“TBUT”) daily for three days, following the induction of dry eye. TBUT was determined by instilling […] into the cul de sac and manually blinking the lids to distribute the fluorescein within the tear film. Under slit lamp observation, the eye was held open and the time to tear film breakup recorded. Efficacy was determined by comparing TBUT relative to pre-inflammation baseline values in drug and vehicle treated animals. In a separate group of animals, susceptibility to desiccation-induced corneal injury was assessed following the induction of lacrimal gland inflammation. Desiccation was initiated by placing the rabbits in a low humidity environment continuously for up to three days. Corneal injury was assessed by determining the uptake of the vital dye, methylene blue. Under general anesthesia, the ocular surface was bathed in a 1% solution of methylene blue for five minutes and then washed. The animals were euthanized, eyes were excised and an 8 mm-diameter section of cornea was isolated and extracted overnight. The concentration of extracted dye was determined spectrophotometrically ([…]). Protection of the cornea is indicated by a lesser uptake of dye in drug treated animals relative to that in vehicle treated rabbits. For both TBUT and corneal injury determinations, dosing (QID) was initiated 24-hours prior to inducing inflammation and was continued for the duration of the study. A second dose-response study was conducted using the procedures described in Example 2 above.
# [4] = Example 2, tested 0.005%, 0.01%, 0.05 and 0.1%
# [5] = Example 3 (second dose-response study)
smiles,measurement,setting,value
CCC(=O)[C@@]1(C)[C@H](C)C[C@H]2[C@@H]3CCC4=CC(=O)C=C[C@]4(C)[C@H]3[C@@H](O)C[C@@]21C [rimexolone],dry eye symptoms (discomfort) versus vehicle/placebo,[1],less dry eye symptoms
same,increases in intraocular pressure,[1],did not exhibit any clinically relevant increases in intraocular pressure
same,inhibition of desiccation-induced corneal injury (peak efficacy),"[2]; Example 2, rimexolone 0.1% suspension, QID, FIG. 2",74 % inhibition
same,maximally effective concentration for prevention of desiccation-induced corneal staining,[2]; [4],0.1%
same,maximally effective concentration for prevention of desiccation-induced corneal staining,[2]; [5],0.1%
same,inhibition of corneal staining,"[2]; Example 3 (second dose-response study), rimexolone 0.1%, FIG. 4",77%
same,TBUT expressed as percent of baseline on day three,"[3]; Example 2, rimexolone 0.1% suspension, QID, FIG. 1",66 % of baseline
same,maximally effective concentration for restoration of TBUT,[3]; [4],0.1%
same,maximally effective concentration for restoration of TBUT,[3]; [5],0.1%
same,"TBUT restored, percent of baseline on day three","[3]; Example 3 (second dose-response study), rimexolone 0.1%, FIG. 3",71 % of baseline
